Activity calls are given as the source filed them.
Columns and labels:
H9c2 = assay: cells; assay type: functional, cell-based; details: Rattus norvegicus, H9c2, Myocardium;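 also: confirmatory concentration-response retest of ultra-high-throughput screening hits for modulation of myocardial damage; cell death induced by hydrogen peroxide oxidative stress; compound pretreatment for 60 min then peroxide exposure for 2 h; potency is for protecting the cells against peroxide damage rather than for killing them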
[1] = target: FAD-linked sulfhydryl oxidase ALR (Homo sapiens, UniProt P55789); assay: inhibitors of human ALR sulfhydryl oxidase, dose response, biochemical, H2O2 detection, luminescence, cherry-pick (AID 493248)
Chain of FAD-linked sulfhydryl oxidase ALR (P55789 whole entry): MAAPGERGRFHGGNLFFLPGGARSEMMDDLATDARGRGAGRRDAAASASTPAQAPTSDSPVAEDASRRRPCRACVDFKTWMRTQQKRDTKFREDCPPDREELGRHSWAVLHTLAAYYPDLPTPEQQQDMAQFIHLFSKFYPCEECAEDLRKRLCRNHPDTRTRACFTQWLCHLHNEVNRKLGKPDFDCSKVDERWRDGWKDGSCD

[2] = target: T1, Calpain-2 catalytic subunit (Sus scrofa, UniProt P43367); assay: pig calpain II inhibitor potency, dose response, biochemical, fluorogenic peptide substrate (AID 1420); assay type: functional
T1 sequence (P43367 whole entry): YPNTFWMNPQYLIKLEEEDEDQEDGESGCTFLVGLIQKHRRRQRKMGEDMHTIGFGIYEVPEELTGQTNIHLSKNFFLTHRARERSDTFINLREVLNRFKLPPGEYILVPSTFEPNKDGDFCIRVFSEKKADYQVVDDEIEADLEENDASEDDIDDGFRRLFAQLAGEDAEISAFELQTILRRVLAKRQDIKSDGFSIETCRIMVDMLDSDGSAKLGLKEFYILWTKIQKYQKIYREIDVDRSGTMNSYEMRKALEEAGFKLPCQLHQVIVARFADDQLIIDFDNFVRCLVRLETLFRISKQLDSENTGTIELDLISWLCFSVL

[3] = target: T2, Carboxy-terminal domain RNA polymerase II polypeptide A small phosphatase 1 (Homo sapiens, UniProt Q9GZU7); assay: inhibitors of CTDSP1, concentration-response testing, biochemical assay, absorbance-based, actives from ultra-high-throughput screening (AID 540297); assay type: functional
T2 sequence (Q9GZU7 whole entry): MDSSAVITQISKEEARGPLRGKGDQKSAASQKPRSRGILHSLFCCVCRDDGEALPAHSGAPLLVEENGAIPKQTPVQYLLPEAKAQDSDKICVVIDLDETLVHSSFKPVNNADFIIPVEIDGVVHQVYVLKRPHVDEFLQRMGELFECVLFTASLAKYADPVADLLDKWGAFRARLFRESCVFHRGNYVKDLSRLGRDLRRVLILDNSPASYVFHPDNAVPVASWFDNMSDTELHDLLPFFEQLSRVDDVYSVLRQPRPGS

[4] = target: T3, Ubiquitin-conjugating enzyme E2 N (Homo sapiens, UniProt P61088); assay type: functional;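 also: Dose-response confirmation in a TR-FRET assay detecting UBC13-driven polyubiquitin chain formation, inhibition measured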
T3 sequence (P61088 whole entry): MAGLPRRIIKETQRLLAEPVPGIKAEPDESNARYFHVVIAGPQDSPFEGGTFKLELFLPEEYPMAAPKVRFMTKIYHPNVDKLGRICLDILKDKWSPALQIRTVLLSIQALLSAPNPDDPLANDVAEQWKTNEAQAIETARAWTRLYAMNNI

[5] = P. falciparum Dd2 growth inhibitors, dose response, SYBR Green, cherry-picked samples (AID 1159567); assay type: functional, cell-based
BJ [6] = assay: cytotoxicity toward BJ-TERT fibroblasts, dose response, cell-based, RAS-independent, luminescence (AID 1933); assay type: functional; details: Homo sapiens
BJ [7] = assay: cells; assay type: functional, cell-based; details: Homo sapiens
BJ [8] = assay: cytotoxicity toward BJ-TERT-LT-ST fibroblasts, dose response, cell-based, RAS-independent, luminescence (AID 1935); assay type: functional; details: Homo sapiens;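 also: BJ fibroblasts immortalized with TERT plus LT and ST oncogenes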
[9] = cytotoxicity toward DRD oncogenic fibroblasts, dose response, cell-based, non-viral oncogenic, luminescence (AID 1934); assay type: functional; details: Homo sapiens
[10] = target: Induced myeloid leukemia cell differentiation protein Mcl-1 (Homo sapiens, UniProt Q07820); assay type: functional
Chain of Induced myeloid leukemia cell differentiation protein Mcl-1 (Q07820 whole entry, the tested form may be a part): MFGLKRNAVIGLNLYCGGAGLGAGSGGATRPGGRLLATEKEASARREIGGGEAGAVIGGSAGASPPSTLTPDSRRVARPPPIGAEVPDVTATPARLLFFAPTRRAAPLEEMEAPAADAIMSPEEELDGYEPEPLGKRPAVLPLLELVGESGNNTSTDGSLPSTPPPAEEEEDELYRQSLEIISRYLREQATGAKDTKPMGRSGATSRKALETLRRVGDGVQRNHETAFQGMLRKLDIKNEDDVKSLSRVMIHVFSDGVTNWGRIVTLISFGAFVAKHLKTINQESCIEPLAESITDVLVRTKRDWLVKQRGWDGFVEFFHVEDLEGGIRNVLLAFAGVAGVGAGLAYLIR

[11] = target: T4, RNA-binding protein pos-1 (Caenorhabditis elegans, UniProt G5EF15); assay: inhibitors of POS-1/mex-3 RNA binding, dose response, biochemical, fluorescence polarization (AID 1964);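 also: purified POS-1 fused to maltose binding protein made in E. coli; potency of compounds blocking POS-1 binding to fluorescent RNA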
T4 sequence (G5EF15 whole entry): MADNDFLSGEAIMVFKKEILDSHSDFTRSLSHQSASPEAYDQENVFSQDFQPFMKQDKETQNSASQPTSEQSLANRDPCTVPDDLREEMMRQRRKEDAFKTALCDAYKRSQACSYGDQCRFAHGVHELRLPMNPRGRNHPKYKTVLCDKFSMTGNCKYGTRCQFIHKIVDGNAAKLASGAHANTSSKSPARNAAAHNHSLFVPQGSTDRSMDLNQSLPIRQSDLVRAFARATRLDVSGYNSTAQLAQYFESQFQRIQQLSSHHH

[12] = target: T5, Zinc finger protein mex-5 (Caenorhabditis elegans, UniProt Q9XUB2); assay: MEX-5/TCR-2 RNA interaction inhibitors, dose response, biochemical, C. elegans, fluorescence polarization (AID 1960)
T5 sequence (Q9XUB2 whole entry): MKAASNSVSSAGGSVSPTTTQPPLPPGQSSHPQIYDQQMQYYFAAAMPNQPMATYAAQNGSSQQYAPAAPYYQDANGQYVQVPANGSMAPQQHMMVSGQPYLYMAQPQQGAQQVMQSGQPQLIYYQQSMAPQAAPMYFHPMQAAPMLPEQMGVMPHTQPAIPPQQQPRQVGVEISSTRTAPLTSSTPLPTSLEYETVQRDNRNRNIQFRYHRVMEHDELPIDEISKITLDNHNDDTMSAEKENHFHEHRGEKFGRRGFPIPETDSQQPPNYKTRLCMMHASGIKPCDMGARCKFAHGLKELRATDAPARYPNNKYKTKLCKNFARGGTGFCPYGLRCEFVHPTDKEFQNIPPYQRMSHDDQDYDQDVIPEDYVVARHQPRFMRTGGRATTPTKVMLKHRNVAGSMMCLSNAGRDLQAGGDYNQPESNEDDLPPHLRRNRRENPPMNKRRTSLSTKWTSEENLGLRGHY

Large T antigen = Large T antigen (Simian virus 40, UniProt P03070); assay type: functional, Betapolyomavirus macacae;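 also: Confirmatory-stage PubChem screen for compounds that inhibit SV40 T antigen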
Chain of Large T antigen (P03070 whole entry): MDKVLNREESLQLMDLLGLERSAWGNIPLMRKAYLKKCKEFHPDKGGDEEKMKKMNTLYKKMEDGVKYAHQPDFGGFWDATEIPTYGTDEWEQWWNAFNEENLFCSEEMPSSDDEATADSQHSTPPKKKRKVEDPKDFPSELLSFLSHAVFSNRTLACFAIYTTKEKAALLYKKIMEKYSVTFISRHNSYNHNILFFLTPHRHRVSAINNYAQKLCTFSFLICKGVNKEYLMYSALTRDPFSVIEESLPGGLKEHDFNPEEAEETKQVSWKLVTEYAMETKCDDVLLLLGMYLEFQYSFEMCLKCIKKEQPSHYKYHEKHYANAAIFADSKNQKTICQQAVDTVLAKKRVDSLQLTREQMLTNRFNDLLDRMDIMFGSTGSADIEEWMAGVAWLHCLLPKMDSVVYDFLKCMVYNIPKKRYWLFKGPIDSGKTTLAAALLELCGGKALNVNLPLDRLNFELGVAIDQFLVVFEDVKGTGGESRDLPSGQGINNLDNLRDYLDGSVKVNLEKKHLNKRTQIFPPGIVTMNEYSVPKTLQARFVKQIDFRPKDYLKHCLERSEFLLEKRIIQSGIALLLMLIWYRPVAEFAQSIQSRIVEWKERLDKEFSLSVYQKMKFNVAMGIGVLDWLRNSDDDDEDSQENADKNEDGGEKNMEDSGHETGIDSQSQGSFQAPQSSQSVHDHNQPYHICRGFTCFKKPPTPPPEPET

[13] = Luminescence Cell-Based Dose Confirmation HTS to Identify Activators of 5'UTR Stem-Loop Driven Alpha-Synuclein mRNA Translation in H4 Neuroglioblastoma Cells. [Related pubchem assays: 1829 (Project Summary), 1814 (Primary HTS)]; assay type: functional
[14] = Luminescence Cell-Based Dose Response HTS to Identify Activators of Luciferase Translation or Activity in H4 […] Cells. [Related pubchem assays: 1829 (Project Summary), 1814 (Primary HTS)]; assay type: functional
H4 = assay: Luminescence Cell-Based Dose Response HTS to Identify Activators of 5'UTR Stem-Loop Driven Prion Protein mRNA Translation in H4 Neuroglioblastoma Cells. [Related pubchem assays: 1829 (Project Summary), 1814 (Primary HTS)]; assay type: functional; details: Homo sapiens
[15] = Shn3 3'UTR reporter inhibitors, dose response, cell-based, Clone20 osteoblasts, firefly luciferase, cherry-picked (AID 624132); assay type: functional;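 also: firefly luciferase luminescence from reporter carrying the Shn3 3'UTR in osteoblasts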
[16] = HepG2 cell cytotoxicity, dose response, cytotoxicity control for Shn3 inhibitor project, CellTiter-Glo, cherry-picked (AID 624134); assay type: functional, cell-based
[17] = control 3'UTR Renilla luciferase suppression, dose response, counter-screen for Shn3 inhibitor project, cell-based, Clone20-Shn3RL, cherry-picked (AID 624133); assay type: functional
[18] = inhibitors of HIV Env-driven cell fusion, dose response, cherry-pick (AID 652057); assay type: functional, cell-based
[19] = ZM109 Env clade C HIV-1 fusion inhibitors, dose response, HeLa effector, CEM target cells, luciferase, cherry-pick (AID 652058); assay type: functional, cell-based
[20] = inhibitors of clade B AD8 Env fusion, dose response, cell-based, cherry-pick (AID 652062); assay type: functional;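 also: luciferase signal from cell-cell fusion driven by HIV-1 clade B AD8 Env; potency is for inhibitors of fusion seen as a drop in luminescence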
Cytochrome P450 2C9 = Cytochrome P450 2C9 (Homo sapiens, UniProt P11712)
Chain of Cytochrome P450 2C9 (P11712 whole entry): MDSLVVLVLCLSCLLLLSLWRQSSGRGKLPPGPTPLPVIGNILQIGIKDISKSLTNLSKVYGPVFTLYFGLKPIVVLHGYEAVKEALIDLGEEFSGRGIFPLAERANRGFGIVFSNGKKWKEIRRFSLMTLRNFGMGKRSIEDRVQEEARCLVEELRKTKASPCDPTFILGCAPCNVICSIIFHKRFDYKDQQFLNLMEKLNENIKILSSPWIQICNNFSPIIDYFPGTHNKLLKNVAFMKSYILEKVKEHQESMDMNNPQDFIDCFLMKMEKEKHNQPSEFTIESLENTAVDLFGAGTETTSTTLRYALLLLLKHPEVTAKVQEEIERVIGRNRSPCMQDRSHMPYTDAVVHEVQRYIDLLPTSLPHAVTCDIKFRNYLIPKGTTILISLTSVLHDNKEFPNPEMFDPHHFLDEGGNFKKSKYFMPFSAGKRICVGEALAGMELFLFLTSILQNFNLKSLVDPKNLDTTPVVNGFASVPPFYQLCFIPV

Cytochrome P450 2C19 = Cytochrome P450 2C19 (Homo sapiens, UniProt P33261); assay: Cytochrome panel assay with activity outcomes. Panel member name: p450-cyp2c19 Compounds with AC50 equal or less than 10 uM are considered active; assay type: functional; details: read-out: AC50
Chain of Cytochrome P450 2C19 (P33261 whole entry): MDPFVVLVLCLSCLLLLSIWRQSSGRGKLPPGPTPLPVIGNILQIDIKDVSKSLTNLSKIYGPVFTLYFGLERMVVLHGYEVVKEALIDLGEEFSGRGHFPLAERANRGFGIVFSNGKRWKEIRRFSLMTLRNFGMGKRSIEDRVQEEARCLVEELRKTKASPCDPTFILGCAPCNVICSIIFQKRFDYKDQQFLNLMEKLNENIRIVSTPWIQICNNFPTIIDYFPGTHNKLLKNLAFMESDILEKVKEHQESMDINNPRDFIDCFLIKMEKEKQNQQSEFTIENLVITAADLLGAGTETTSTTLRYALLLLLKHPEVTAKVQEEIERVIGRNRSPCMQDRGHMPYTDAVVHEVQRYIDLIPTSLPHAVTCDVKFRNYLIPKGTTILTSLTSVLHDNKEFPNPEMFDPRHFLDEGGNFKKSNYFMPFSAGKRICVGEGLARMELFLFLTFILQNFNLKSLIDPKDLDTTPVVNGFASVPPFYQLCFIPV

Cytochrome P450 2D6 = Cytochrome P450 2D6 (Homo sapiens, UniProt P10635);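 also: CYP2D6 member of a cytochrome P450 panel assay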
Chain of Cytochrome P450 2D6 (P10635 whole entry): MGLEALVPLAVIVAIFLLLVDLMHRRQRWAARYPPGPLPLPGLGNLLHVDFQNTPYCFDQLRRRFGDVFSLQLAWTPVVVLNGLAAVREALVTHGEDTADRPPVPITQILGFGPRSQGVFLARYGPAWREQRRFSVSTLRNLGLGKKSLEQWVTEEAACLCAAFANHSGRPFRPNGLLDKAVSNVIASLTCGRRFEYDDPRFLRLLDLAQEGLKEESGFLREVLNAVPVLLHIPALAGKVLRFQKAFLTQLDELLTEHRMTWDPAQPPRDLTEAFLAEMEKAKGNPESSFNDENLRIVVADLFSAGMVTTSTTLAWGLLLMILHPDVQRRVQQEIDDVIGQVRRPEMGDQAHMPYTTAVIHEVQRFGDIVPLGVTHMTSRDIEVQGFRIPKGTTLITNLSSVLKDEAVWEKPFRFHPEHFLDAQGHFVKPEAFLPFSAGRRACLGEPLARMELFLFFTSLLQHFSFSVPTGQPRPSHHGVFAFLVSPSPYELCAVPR

Cc1cc(C)cc(OCC(=O)Nc2cccc(-c3nc4ncccc4o3)c2)c1
IC50 (H9c2): > 79 µM (inactive)

CCN(CC)c1ccc(/C=N/NC(=O)CNC(=O)c2ccccn2)cc1
AC50 [1]: 0.91 µM (active)

COc1cccc(NC(=O)CN(C)CC(=O)Nc2ccc(Cl)cc2[N+](=O)[O-])c1
IC50 [2]: 24 µM (not active)

C#Cc1ccc([C@@H]2C=C(C(=O)O)O[C@H](OCC)[C@H]2CCCO)cc1
IC50 [3]: 4.59 µM (active)

C#CCOCCOCCOCCNc1nc(N2CCN(C(=O)[C@H](CCCCN)n3cc([C@@H](N)CO)nn3)CC2)nc(N2CCN(C(=O)[C@H](CCCCN)n3cc([C@@H](N)CC(C)C)nn3)CC2)n1
IC50 [4]: > 20 µM (inactive)

COCCCN(Cc1ccco1)C(=O)Cn1ncc2c3ccccc3nc-2c1O
IC50 (H9c2): > 79 µM (inactive)

CC(C)(C)[S@@+]([O-])N1Cc2cc(C(=O)N3CCc4ccccc4C3)nc(-c3cccc(-c4ccncc4)c3)c2[C@H]1CCO
AC50 [5]: 5.87 µM (active)

COc1cc(C(=O)Nc2ccc(C)cc2)c2ccccc2n1
EC50 (BJ [6]): 1.15 µM (inconclusive)
EC50 (BJ [7]): 22.9 µM (active)
EC50 (BJ [8]): 12.8 µM (inconclusive)
EC50 [9]: 0.707 µM (inconclusive)

O=C(Nc1ccc2c(c1)nc1n2CCN(C2CCCCC2)C1)c1ccco1
IC50 [10]: 6.52 µM (active)

CCN(CC)c1ccc(N/C=C2\C(=O)NC(=O)N(c3cc(OC)ccc3OC)C2=O)cc1
EC50 [11]: > 300 µM (not active)
EC50 [12]: > 300 µM (not active)
IC50 (Large T antigen): 19.8 µM (active)

CC(C)Cn1c(S)nnc1-c1csc2c1CCCC2
IC50 [2]: 13.5 µM (not active)

CCOc1cc(/C=N/NC(N)=O)cc(Br)c1OCC(=O)Nc1cccc2ccccc12
IC50 (H9c2): > 79 µM (inactive)

COc1cc(/C=N\Nc2nc(-c3cccs3)c(NC(C)=O)s2)ccc1O
IC50 (Large T antigen): 27.8 µM (active)
IC50 [10]: 2.72 µM (active)

Cc1nn2cc(-c3cccc(Cl)c3)cnc2c1Br
EC50 (BJ [6]): 17.4 µM (active)
EC50 (BJ [7]): 68.2 µM (active)
EC50 (BJ [8]): 20.3 µM (active)
EC50 [9]: 16 µM (active)

Cc1cccc(NC2=NC(=O)/C(=C/C=C/c3ccco3)S2)c1
IC50 [10]: 11.4 µM (active)

COCCN(C(=O)COC(=O)Cc1coc2cc3c(cc12)CCC3)c1c(N)n(Cc2ccccc2)c(=O)[nH]c1=O
IC50 [3]: 6.23 µM (active)

N#Cc1c(-c2ccco2)cc(-c2ccccc2)[nH]c1=O
IC50 (Large T antigen): 68.7 µM (active)

NC(=O)c1ccc(-n2nnnc2Oc2ccccc2C(=O)N2CCOCC2)cc1
EC50 [13]: 8.06 µM (active)
EC50 [14]: 31.4 µM (inconclusive)
EC50 (H4): > 120 µM (not active)
IC50 [2]: 3.94 µM (not active)

C=CCNC(=O)c1ccc(Cn2c(=S)[nH]c3cc4c(cc3c2=O)OCO4)cc1
IC50 [3]: 8.27 µM (active)

COc1ccc2c3c(n(C)c2c1)[C@H](CO)N(Cc1ccccc1OC)CC31CN(CC2CCOCC2)C1
AC50 [5]: 4.81 µM (active)

Cc1ccc(S(=O)(=O)N/N=C/c2ccc(O)c(O)c2)cc1[N+](=O)[O-]
AC50 [1]: 1.06 µM (active)

CC(=O)c1ccc(S(=O)(=O)N2CCNC(=O)C2)cc1
AC50 [1]: 3.33 µM (active)

NS(=O)(=O)c1ccc(CCNCc2cc(Br)ccc2OCc2ccccc2F)cc1
IC50 [2]: > 50 µM (not active)
AC50 [15]: 4.65 µM (active)
AC50 [16]: 36.9 µM (active)
AC50 [17]: 8.75 µM (active)

CN(CC(=O)Nc1ccc(F)cc1)C(=O)CCc1nc(O)c2ccccc2n1
IC50 (H9c2): > 79 µM (inactive)

O=C(O)c1cccc(N/N=C/c2cc(Br)cc(Br)c2O)c1
AC50 [1]: 1.99 µM (active)

COc1cc(/C=N/NC(=O)CCc2c(C)n[nH]c2C)ccc1O
IC50 (Large T antigen): 12.9 µM (active)

C[C@H](CO)N1C[C@H](C)[C@H](CN(C)C(=O)Nc2ccc(F)cc2)OCc2ccccc2-c2c(n(C)c3ccccc23)C1=O
AC50 [18]: < 0.26 µM (active)
AC50 [19]: < 0.26 µM (active)
AC50 [20]: < 0.26 µM (active)

CCOC(=O)/C=C1\CC(C(=O)OCC)Oc2c(OC)cccc21 (configuration not stated)
IC50 [3]: 16.7 µM (active)

CC(C)Cn1c(N)c(C(=O)COC(=O)CCc2nc(O)c3ccccc3n2)c(=O)n(C)c1=O
IC50 (H9c2): > 79 µM (inactive)

COc1ccc(-c2cc(C(=O)N(C)Cc3ccc(OC)c(OC)c3OC)c3ccccc3n2)cc1OC
IC50 (H9c2): > 79 µM (inactive)

Oc1nc2cccc(Cl)c2c2ccccc12
IC50 (H9c2): 39.6 µM (inactive)

CSc1cccc(NC(=O)CSc2ccc(Cl)cc2)c1
IC50 [2]: 8.93 µM (not active)

O=C(NCCCN1CCc2ccccc2C1)Nc1ccc(Cl)cc1
AC50 [18]: 3.52 µM (active)
AC50 [20]: 39.9 µM (active)
AC50 (Cytochrome P450 2C9): 14.1 µM (inconclusive)

COc1ccc2c3c([nH]c2c1)[C@@H](CO)N(Cc1cc(F)ccc1F)CC31CN(C(=O)C2CCC2)C1
AC50 [5]: 6.17 µM (active)

O=[N+]([O-])c1ccc(CSC2=NCCS2)cc1
AC50 [1]: 5.31 µM (active)

CC1(C(O)(C#CC[N+]2(C)CCCCC2)c2ccccc2)CCCC1 (configuration not stated)
IC50 [3]: 9.1 µM (active)

COC(=O)c1ccc(NC(=O)c2cccc(Cl)c2)o1
AC50 [1]: 20.9 µM (active)

Cc1ccc(NC(=O)CSc2ccccc2NC(=O)c2ccccc2Cl)cc1Cl
IC50 [3]: 7.38 µM (active)

Cc1ccc2c(c1)N/C(=C\C(=O)CC(C)C)C(=O)O2
EC50 [11]: > 300 µM (not active)
EC50 [12]: > 300 µM (not active)
IC50 (Large T antigen): 7.15 µM (active)

COc1ccc2c3c(n(C)c2c1)[C@@H](CO)N(C(=O)Nc1ccccc1F)CC31CCN(C)CC1
AC50 [5]: 5.95 µM (active)

COc1ccc(N(CC(=O)N/N=C/c2cccs2)S(=O)(=O)c2ccc(OC)c(OC)c2)cc1
AC50 (Cytochrome P450 2C19): 0.0178 µM (inconclusive)
IC50 (H9c2): > 79 µM (inactive)
AC50 (Cytochrome P450 2D6): 31.6 µM (inconclusive)
AC50 (Cytochrome P450 2C9): 4.47 µM (inconclusive)

O=C(OCc1ccccc1)Oc1cncc(C(=O)O)c1
AC50 [1]: 0.072 µM (active)

O=C(COC(=O)CC12CC3CC(CC(C3)C1)C2)Nc1cccnc1Cl
IC50 [2]: > 50 µM (not active)

From ChEMBL document CHEMBL1201862, “PubChem BioAssay data set” (2004)
